Measured values: PubChem BioAssay AID624254 (Broad Institute, 2012)
The source made the active and inactive calls. No rule for the calls is given here.

Assay: Quorum luxo inducers, light production, v cholerae bh1651 luxod47e, confirmatory dose response (AID 624254)
Details: V. cholerae BH1651 luxOD47E, luciferase light induction, 6 h; at 50 µM (top of the series)

| SMILES | activation (light increase) |
| --- | --- |
| O=C(NCc1ccccc1F)C(=O)NCC1CCCN1S(=O)(=O)c1ccccc1 (stereo unspecified) | inactive |
| Cc1ccc(OCCC(=O)OCC(=O)Nc2ccc3c(c2)OCO3)cc1 | inactive |
| O=C(CCc1nc(-c2ccccc2)no1)N1CCCC1 | inactive |
| CC(C)OC(=O)CSc1nnc(SCc2cccc3ccccc23)s1 | inactive |
| Cc1noc(C)c1NC(=O)Nc1cccc2c1O[C@H](CN(C)S(=O)(=O)c1cccs1)[C@H](C)CN([C@H](C)CO)C2=O | inactive |
| Cc1ccc(C)c(C(=O)CN2C(=O)NC3(CCCCCC3)C2=O)c1 | inactive |
| Brc1ccc(C2=Nn3c(nnc3-c3n[nH]c4c3CCC4)SC2)cc1 | inactive |
| O=C(Cc1ccc2c(c1)CCCC2)Nc1ccccc1Br | inactive |
| CC(C)NC(=O)c1cnc(Sc2ncc(C(F)(F)F)cc2Cl)n1C | inactive |
| CCCn1nnnc1NCc1ccc(N(C)C)cc1 | inactive |
| Cc1cc(OC(F)F)ccc1NC(=S)NCCc1ccccc1 | inactive |
| COc1ccc(CCN(C)C(=O)c2cc(S(=O)(=O)N3CCCCCC3)ccc2OC)cc1OC | inactive |
| Cc1cc(C(=O)OCC(=O)NC2CCCCC2)c(C)o1 | inactive |
| CC1(C(=O)N2CCN(c3ccc([N+](=O)[O-])cc3)CC2)CC1(Cl)Cl (stereo unspecified) | inactive |
| COc1ccc(-c2nc(N)ncc2Oc2ccccc2Br)c(O)c1 | inactive |
| COc1ccccc1CCN1CCCC(CN(C)C(=O)c2ccco2)C1 (stereo unspecified) | inactive |
| Cc1onc(-c2ccccc2)c1C(=O)n1cccn1 | inactive |
| COC(=O)c1cc(NC(=O)C2CC=CCC2C(=O)O)cc(C(=O)OC)c1 (stereo unspecified) | inactive |
| COc1cc(C(=O)Nc2ccc(NC(=O)C(C)C)nc2)cc(OC)c1OC | inactive |
| O=C(COC(=O)c1cc(Cl)ccc1Cl)NC1CCCC1 | inactive |
| O=C(c1ccccc1)N1CCC(c2nc(-c3ccc(S(=O)(=O)N4CCOCC4)cc3)no2)CC1 | inactive |
| CC1(C)NC(=O)N(CCOCCOc2ccc3ccccc3c2Br)C1=O | inactive |
| C=Cn1c(C(=O)O)ccc1-c1cccs1 | inactive |
| O=S(=O)(Nc1ccc(-c2ccc3nncn3n2)cc1)c1ccc(Cl)s1 | inactive |
| CCOc1ccc(CNC(=O)Cn2c(=O)c3cccn3c3ccccc32)cc1 | inactive |
| Cc1cccc(OCC(=O)N(C)CCc2ccccn2)c1 | inactive |

| SMILES | activation (light increase) |
| --- | --- |
| CCc1ccc(-c2ccc(C(=O)O)n2C)cc1 | inactive |
| COc1ccccc1NC(=O)CN1CCN(C(=O)C2CCCO2)CC1 (stereo unspecified) | inactive |
| CCC(O)(CCN1CCCCC1)c1ccccc1 (stereo unspecified) | inactive |
| CCC(C)NS(=O)(=O)c1ccc(S(=O)(=O)Nc2cc3c(cc2C(C)=O)OCO3)cc1 (stereo unspecified) | inactive |
| CCc1sc(N(C(=O)Cc2ccccc2)c2ccc(F)cc2)nc1-c1ccccc1 | inactive |
| COc1ccc(-c2ccc(-c3nnc(Cc4ccc(OC)c(OC)c4)o3)cc2)cc1 | inactive |
| CCn1nnnc1SCC(=O)c1ccc2c(c1)OCCO2 | inactive |
| Cc1cnc(C(=O)OCC(=O)NC(=O)NC(C)C)cn1 | inactive |
| Cc1ccccc1NC(=O)Cc1nc(COC(=O)c2ccccn2)cs1 | inactive |
| CCC(C)(C)n1nnnc1CN1CCN(c2nc3ccc(C)cc3cc2C#N)CC1 | inactive |
| COc1cc2c(c(OC)c1OC)C(c1ccc(C)cc1)CC(=O)O2 (stereo unspecified) | inactive |
| CCOc1ccc(S(=O)(=O)N(CCO)CCO)cc1-c1nc2c(C(C)(C)C)nn(C)c2c(=O)[nH]1 | inactive |
| COc1ccc(-n2c(COc3ccccc3)nnc2SCc2ccc(C#N)cc2)cc1 | inactive |
| CC(=O)N1CCN(C(=O)c2cc(-c3ccc(Cl)s3)nc3ccccc23)CC1 | inactive |
| COC(=O)[C@H]1C[C@H](C(=O)O)[C@@H](C)C1(C)C | inactive |
| Cc1ccc(S(=O)(=O)NCCC(=O)OCC(=O)N(Cc2ccccc2)C(C)(C)C)cc1C | inactive |
| FC(F)(F)c1nnc2sc(-c3cccs3)nn12 | inactive |
| CCOC(=O)Cc1c(C)[nH]c(=S)[nH]c1=O | inactive |
| COc1ccccc1N1CCN(C(=O)c2cc3c(s2)CCC3)CC1 | inactive |
| COCCNc1nc2c(c(=O)n(Cc3ccc(OC)cc3)c(=O)n2C)n1C | inactive |
| COc1ccc(N(CC(=O)NC2CCCCC2)C(=O)CNC(=O)c2ccco2)c(OC)c1 | inactive |
| Cc1ccc(S(=O)(=O)N2Cc3ccccc3CC2C(=O)Nc2ccc3c(c2)OCO3)cc1 (stereo unspecified) | inactive |
| CCCCn1nnnc1NCc1ccc(N(CC)CC)cc1 | inactive |
| CN(C)C(=O)c1ccccc1NS(=O)(=O)c1cn(C)cn1 | inactive |
| CC(=O)c1ccc(NC(=O)COc2ccccc2C(=O)Nc2ccccc2)cc1 | inactive |
| COCCSc1ccccc1C(=O)Nc1nnc(COC)s1 | inactive |

| SMILES | activation (light increase) |
| --- | --- |
| Cc1onc(-c2ccccc2)c1C(=O)Nc1nc2c(s1)CCCC2 | inactive |
| COc1ccc(NC(=O)COc2cccc3c2CCNC3=O)cc1 | inactive |
| COc1cccc(-c2nc(OC(C)C)c3ccccc3n2)c1 | inactive |
| CCc1nnc(NC(=O)C2CC(=O)N(c3ccc(C)cc3)C2)s1 (stereo unspecified) | inactive |
| O=C(Nc1ccc2oc(-c3ccc4ccccc4c3)nc2c1)c1cccs1 | inactive |
| CCOC(=O)Nc1ccc(S(=O)(=O)Nc2cc(C)nc(C)n2)cc1 | inactive |
| Cc1cccc(C(=O)OCC(=O)NCC(C)C)c1O | inactive |
| O=C(CC1NC(=O)NC1=O)Nc1ccc(Cl)cc1 (stereo unspecified) | inactive |
| Cc1ccc(Oc2ccc(S(=O)(=O)N3CCOCC3)cc2C(N)=O)c(-n2nc3ccccc3n2)c1 | inactive |
| O=C(NCc1ccccc1)C1CCCN(S(=O)(=O)c2cccnc2)C1 (stereo unspecified) | inactive |
| Cc1nc2ccc(C(=O)OCC(=O)N(C)c3ccccc3)cc2nc1C | inactive |
| CCCN1CCN(C(=O)CCCNC(=O)Cn2cnc3sc(C)c(C)c3c2=O)CC1 | inactive |
| NS(=O)(=O)c1cc(C(=O)OCC(=O)NC2CCCCCCC2)ccc1Cl | inactive |
| COC(=O)c1sc2ncccc2c1OCc1c(Cl)cccc1Cl | inactive |
| O=C(Oc1nsnc1N1CCCCC1)N1CCOCC1 | inactive |
| O=[N+]([O-])c1ccc(S(=O)(=O)NCC(c2cccnc2)N2CCc3ccccc32)cc1 (stereo unspecified) | inactive |
| CCCc1cc(Nc2ccccc2OCC)n2ncnc2n1 | inactive |
| O=C(NCc1ccccn1)c1c(O)c2c([nH]c1=O)CCCC2 | inactive |
| CCCCN(C)CCNC(=O)c1ccc2c(c1)NC(=O)C(N1CCCCC1)S2 (stereo unspecified) | inactive |
| Cc1cc(=O)oc2ccc(OCc3ccccc3)cc12 | inactive |
| CCC(CCC(=O)Nc1cccc(C(=O)O)c1)C(=O)O (stereo unspecified) | inactive |
| CCCOc1ccc(-c2nc(C#N)c(N3CCN(CC)CC3)o2)cc1 | inactive |
| O=C(Nc1ccc(S(=O)(=O)Nc2ncccn2)cc1)C1CC(=O)N(c2ccccc2)C1 (stereo unspecified) | inactive |
| CCOC(=O)c1c(C)[nH]c(C(=O)COC(=O)C2(C)CC2(Cl)Cl)c1C (stereo unspecified) | inactive |
| Cc1c(C(=O)c2ccc(F)cc2F)c2ccccn2c1CCc1ccccn1 | inactive |
| COc1ccc(C(=O)NC2CCSC2=O)cc1 (stereo unspecified) | inactive |

| SMILES | activation (light increase) |
| --- | --- |
| CCN(CC)C(=O)c1sc(NC(=O)Cc2ccc(OC)cc2)c(C#N)c1C | inactive |
| Cn1ccnc1S(=O)(=O)Nc1ccc(OC(F)(F)F)cc1 | inactive |
| COc1cc(C(N)=O)cc(Br)c1OC | inactive |
| O=C(O)c1[nH]c2ccccc2c1NS(=O)(=O)Cc1ccccc1 | inactive |
| O=C(COC(=O)C1CCN(c2ccc(C(F)(F)F)cn2)CC1)NC1CCCCC1 | inactive |
| O=C(CNC(=O)c1ccncc1)Nc1ccc(F)c(F)c1 | inactive |
| Cc1ccc(Oc2nccc(-c3ccc(Cl)cc3)n2)cc1 | inactive |
| COCCN(C(=O)C1CCC1)c1nnc(-c2cccnc2)s1 | inactive |
| Cc1ccc(C)n1-c1sc2c(c1C#N)CCC(C)C2 (stereo unspecified) | inactive |
| CCCCOCC(O)CN1CCN(C(C)=O)CC1 (stereo unspecified) | inactive |
| CCc1ccc(OCCNC(=O)c2ccco2)cc1 | inactive |
| COc1ccccc1NC(=O)Cc1ccc(-c2ccccc2)cc1 | inactive |
| CC1CCN(c2ccccc2NC(=O)c2cc3ccccc3o2)CC1 | inactive |
| CCCn1nnnc1NCc1ccc(N2CCCC2)cc1 | inactive |
| CCN1CCCC1CNC(=O)c1cc(OC)c(OC)c(OC)c1 (stereo unspecified) | inactive |
| Cc1ccccc1OC(C)c1nc(-c2ccccc2)no1 (stereo unspecified) | inactive |
| COc1ccc(Cc2nnc(NC(=O)C3CC(=O)N(c4ccccc4C)C3)s2)cc1OC (stereo unspecified) | inactive |
| CC(=O)Nc1ccc(NS(=O)(=O)c2cn(C)cn2)cc1 | inactive |
| O=C(c1cccc(S(=O)(=O)N2CCc3ccccc32)c1)N1CCOCC1 | inactive |
| O=C(Oc1ccnc2cc(Cl)ccc12)N1CCCCCC1 | inactive |
| CCCCOc1ccc(NS(=O)(=O)c2cn(C)cn2)cc1 | inactive |
| COc1ccc(S(=O)(=O)Nc2ccc(S(=O)(=O)N3CCOCC3)cc2)cc1C | inactive |
| O=C(OC1CCN(c2ncc(C(F)(F)F)cc2Cl)CC1)c1ccc(Cl)cc1 | inactive |
